Test results reported in the SangsterLogP compilation.

Structure (SMILES)	logP
CC(C)C1NC(=O)NC1=O (configuration not stated)	-0.36
CC1NC(=O)NC1=O (configuration not stated)	-0.95
O=C1CNC(=O)N1Cc1ccccc1	0.82
CC(C)CC1NC(=O)NC1=O (configuration not stated)	0.35
CCC1(c2ccccc2)NC(=O)N(C)C1=O (configuration not stated)	1.69
O=C1CNC(=O)N1	-1.53
O=C1NC(=O)C(Cc2ccccc2)(Cc2ccccc2)N1	2.46
CN1CC(=O)N(c2ccccc2)C1=O	0.14
O=C1NC(Cc2ccccc2)C(=O)N1c1ccccc1 (configuration not stated)	2.27
CCN1C(=O)NC(Cc2ccccc2)C1=O (configuration not stated)	1.61
O=C1NC(Cc2ccccc2)C(=O)N1Cc1ccccc1 (configuration not stated)	2.84
CN1C(=O)NC(c2ccccc2)(c2ccccc2)C1=O	2.28
